According to US20140364417A1, “METHOD OF TREATING ATRIAL FIBRILLATION” (Gilead Sciences, Inc., priority 2013, published 2014):
Where “and” joins values, the source holds several entries; their conditions need not be identical. Equal values may be shown once. Entries after “also recorded” stand apart in the source; their conditions may differ.

Columns and labels:
[1] = Reffelmann and Kloner 2010; Verrier et al 2013; cited from earlier work
[2] = test system: atrial and ventricular myocardium; conditions: cited from earlier work
male Yorkshire pigs = test: A-H, H-V, PR and QT intervals during right atrial pacing in anesthetized pigs; assay type: in vivo; conditions: for increase in PR interval: ivabradine 0.25 mg/kg, 30 min after ivabradine administration; for effect on atrial-His (A-H) interval: right atrial pacing at 180 beats/min, FIG. 6 left panel; for effect on atrial-His (A-H) interval / effect on PR interval: ivabradine 0.25 mg/kg bolus; for effect on PR interval: right atrial pacing at 180 bpm, FIG. 5 upper panel
Protocol: (§1) Data were gathered from male Yorkshire pigs (n=16) weighing 35±2 kg (mean±SEM). The animals were preanesthetized with telazol (4.7 mg/kg, intramuscularly) and then anesthetized with alpha-chloralose (100 mg/kg, i.v., bolus followed by 40 mg/kg/h, i.v., continuous infusion). The animals were intubated and ventilation was maintained between 10-16 breaths/min with volumes between 400-500 mL. Vital signs including core body temperature, heart rate, and oxygen saturation were continuously monitored.
(§2) The right and left femoral veins were cannulated with 7Fr introducer sheaths using the Seldinger technique to insert catheters in the right atrial (RA) appendage for pacing and for positioning the intrapericardial catheter. Arterial blood pressure was continuously monitored from a femoral arterial sheath, and intravenous fluids were administered through the ear vein. The electrocardiogram (ECG) was recorded with a Prucka Cardiolab workstation (GE Medical Systems, Milwaukee, Wis.) from atrial and ventricular sites.
(§3) Ranolazine was given as a 2.4 mg/kg, i.v., bolus followed by continuous infusion of 0.135 mg/kg/min, i.v.
(§4) A nonsteerable, quadripolar electrode catheter (Bard Electrophysiology, Lowell Mass.) was placed in the right atrium (RA) via the femoral vein and a second quadripolar electrode catheter in the right ventricle via the jugular vein. A bipolar electrode was placed in the non-coronary cusp of the aorta through the left carotid artery to record the His bundle electrogram. A pigtail catheter was inserted in the left ventricle via the left femoral artery to record and calculate contractility [left ventricular dP/dt]. Transatrial access was employed to deliver acetylcholine (ACh) into the pericardial space. Specifically, a small puncture was made in the RA appendage with the stiff end of a coronary angioplasty guidewire (0.014-inch Wizdom guidewire, Cordis, Miami, Fla., USA) placed within the lumen of a soft infusion catheter (0.038-inch SOS straight-tip, open-ended angiographic guidewire, Bard Electrophysiology). This wire-within-wire system was advanced as a unit into an 8Fr multipurpose guide catheter (MP2, Boston Scientific, Boston Mass.) previously positioned in the RA appendage via a femoral vein under fluoroscopic guidance and into the pericardial space. The infusion catheter was left in the pericardial space for delivery of ACh and the inner guidewire was removed. Conformation of the infusion catheter on fluoroscopy to the curvature of the heart verified its location within the pericardial space. All of the pericardial fluid was then aspirated with the infusion catheter. Intrapericardial access is associated with a hematocrit <2%, indicating minimum trauma from the atrial puncture (Kumar et al., J Cardiovasc Electrophysiol 2009; 20:796-802). The presence of acetylcholinesterase can rapidly degrade ACh and prevent a sustained response to this neurotransmitter.
The electrical stimulation protocol described below was performed in the control state and after the ivabradine bolus and after ranolazine administration and the combination of ranolazine and ivabradine. Burst pacing was performed after ACh injection into the pericardium and AF was invariably elicited. Ventricular rate during AF was determined by counting the R waves during the 6th minute of AF. Two episodes of AF separated by 10 min were induced to establish control levels.
A Bloom stimulator (Bloom Associates, Reading Pa.) was used to deliver constant-current rectangular stimuli for fixed-rate pacing as well as for delivering premature stimuli. To elicit AF, a burst pacing stimulation with a cycle length of 200 msec was performed. A-H, His-ventricular (H-V), PR and QT interval measurements were made during right atrial pacing at 130 and 180 beats/min.
The statistical tests were carried out with a SAS statistical package (SAS Institute, Cary, N.C.). […]

[3] = Plasma level determination by LC/MS/MS in pigs; assay type: in vivo; conditions: pig; at the time of testing combined administration with ivabradine
Protocol: Blood samples were collected in sodium heparin tubes at 0 and 30 minutes following ranolazine bolus administration and at 0, 15, and 30 minutes after ivabradine bolus administration. The samples were centrifuged and frozen at −80° C. until drug level determination was performed. Concentrations of ivabradine and ranolazine in plasma were determined at Gilead Sciences, Inc. (Foster City Calif.). Plasma was analyzed using a high-performance liquid chromatography-tandem mass spectrometric assay (LC/MS/MS). The quantification limit of ivabradine was 4 nM (1.87 ng/mL). The dynamic range of quantification was 4-10 000 nM (1.87-4686 ng/mL). Ranolazine and an internal standard were extracted with the protein precipitation extraction method. The dynamic range of quantification for ranolazine was 45.8-23,400.

[4] = test system: Acetylcholine Mediated AF Model in Pigs; test: Acetylcholine mediated AF model in pigs: dominant frequency, ventricular rate, arterial blood pressure during AF; assay type: in vivo, pig; conditions: for effect on arterial blood pressure during AF: FIG. 3 and FIG. 4; for effect on dominant frequency of atrial fibrillation / effect on ventricular rate during atrial fibrillation: ivabradine 0.25 mg/kg i.v. bolus; for effect on dominant frequency of atrial fibrillation: ranolazine 2.4 mg/kg bolus + 0.135 mg/kg/min; for effect on dominant frequency of atrial fibrillation / dominant frequency of AF after drug: FIG. 8; for effect on ventricular rate during atrial fibrillation: FIG. 9; for ventricular rate during AF after drug / reduction of ventricular rate during AF: ivabradine 0.25 mg/kg; for ventricular rate during AF after drug: before drug 269.7±6.2 (ivabradine) and 227.3±14.7 (ranolazine, combination); for dominant frequency of AF after drug: series with ivabradine 0.25 mg/kg, baseline 10.3±1.4 (ivabradine) and 9.0±0.8 (ranolazine, combination); for reduction of ventricular rate during AF: alone or shortly after ranolazine
Protocol: as §1, §2, §3, §4
Atrial fibrillation (AF) was defined as an irregular atrial rhythm with an average cycle length <150 msec at all atrial sites, whereas atrial flutter was defined as a regular atrial rhythm with fixed cycle length >150 msec at all atrial sites. After baseline electrical testing was performed, AF initiation was attempted by decremental burst pacing at each atrial site down to loss of 1:1 capture. ACh (1 mL of 100 mM solution) along with a 1-mL saline flush was injected into the pericardial space via the transatrial infusion catheter. […] After 5 minutes of AF, the pericardial space was lavaged with saline (20 mL) via the transatrial pericardial catheter. At the end of lavage, no further pericardial fluid could be removed. Lavage was performed after 5 minutes of AF in order to minimize the mild systemic hypotension that was occasionally associated with ACh administration. The time to spontaneous termination of AF was recorded.
Dominant frequency of AF was analyzed during the 6th minute after AF initiation using the intracardiac electrograms from the right atrial appendage. […]

[5] = test system: AV node and ventricular Purkinje system; conditions: ivabradine 0.2 mg/kg, i.v., cited from earlier work
[6] = ivabradine 0.25 mg/kg i.v., ranolazine 2.4 mg/kg bolus + 0.135 mg/kg/min, pacing 130 beats/min
[7] = larger series, ivabradine 0.25 mg/kg i.v., ranolazine 2.4 mg/kg bolus + 0.135 mg/kg/min, pacing 180 beats/min, FIG. 6
[8] = pacing 130 beats/min, ranolazine 2.4 mg/kg bolus + 0.135 mg/kg/min
[9] = pacing 180 beats/min, ranolazine 2.4 mg/kg bolus + 0.135 mg/kg/min
[10] = pacing rate 180 beats/min, FIG. 2 (first series)

SMILES	increase in A-H interval (male Yorkshire pigs; [6]) [ms]	increase in A-H interval (male Yorkshire pigs; [7]) [ms]	increase in PR interval (male Yorkshire pigs; [8]) [ms]	increase in PR interval (male Yorkshire pigs; [9]) [ms]	increase in A-H interval (male Yorkshire pigs; [10])	effect on atrial-His (A-H) interval (male Yorkshire pigs)	effect on PR interval (male Yorkshire pigs)	effect on arterial blood pressure during AF [4]	effect on dominant frequency of atrial fibrillation [4]	effect on ventricular rate during atrial fibrillation [4]	ventricular rate during AF after drug [4] [beats/min]	dominant frequency of AF after drug [4] [Hz]	other results
COc1ccccc1OCC(O)CN1CCN(CC(=O)Nc2c(C)cccc2C)CC1 (racemic) [ranolazine, (±)-N-(2,6-dimethylphenyl)-4-[2-hydroxy-3-(2-methoxyphenoxy)-propyl]-1-piperazineacetamide]	2.0 ± 2.6	13.8 ± 3.9	5 ± 1.8	19 ± 2.8	18 ms and 18.4 ms	did not	increased PR interval	Neither ivabradine (FIG. 4) nor ranolazine (FIG. 3) given alone improves; also recorded: no significant improvement	neither drug alone was effective	not reduced; also recorded: did not	197.1±17.4	7.8±0.9	steady-state plasma therapeutic concentration [1]: 2 to 8 µM; dominant frequency of AF ([2]; Kumar et al. 2009): capable of reducing; APD in ventricular myocardium ([2]; clinically relevant concentrations (5 and 10 μM)): minimal or no effect; duration of the action potential (APD90) in atria ([2]; published studies): prolongs; HV interval after drug (male Yorkshire pigs; male, Yorkshire, pig, in vivo): 35 ms; QT interval after drug (male Yorkshire pigs; male, Yorkshire, pig, in vivo): 282 ms; A-H interval after drug (male Yorkshire pigs; representative experiment FIG. 7, pacing 180 beats/min, before drug 100 msec, ranolazine, then ivabradine 0.25 mg/kg): 107 ms; PR interval after drug (male Yorkshire pigs; representative experiment FIG. 7, pacing 180 beats/min, before drug 123 msec): 131 ms; plasma level of ranolazine [3]: 9.8 ± 1.5 µM; change in arterial blood pressure during AF versus control (Δ Control/drug) ([4]; FIG. 3): 3.36 mmHg
COc1cc2c(cc1OC)CC(=O)N(CCCN(C)C[C@H]1Cc3cc(OC)c(OC)cc31)CC2 [ivabradine, 3-{3-[{[(7S)-3,4-dimethoxybicyclo[4.2.0]octa-1,3,5-trien-7-yl]methyll}-(methyl)amino]propyl}-7,8-dimethoxy-1,3,4,5-tetrahydro-2H-3-benzapenin-2-one]	15.5	22.0 ± 3.5	16 ± 3.9	20 ± 3.5	31 ms and 31.2 ms	increased atrial-His (A-H) interval	increased PR interval	Neither ivabradine (FIG. 4) nor ranolazine (FIG. 3) given alone improves; also recorded: small, not significant decrease	neither drug alone was effective	lowered ventricular rate	247.2±9.5	9±0.7	heart rate ([5]; Thollon 1997, Camm and Lau 2003): lowers heart rate; conductivity, refractoriness or repolarization duration of AV node and ventricular Purkinje system [5]: without causing changes; effect on QT interval (male Yorkshire pigs; right atrial pacing at 130 and 180 beats/min, FIG. 5 lower panel): not altered; also recorded: neither drug nor their combination altered QT interval; effect on His-ventricular (H-V) interval (male Yorkshire pigs; right atrial pacing at 130 and 180 beats/min, FIG. 6 right panel): unchanged; also recorded: neither drug nor their combination altered His-ventricular (H-V) interval; reduction of ventricular rate during AF [4]: 9%; reduction of ventricular rate during AF ([4]; 30 min after drug infusion): 22.5±6.0 beats/min and 22.53±6.0 beats/min
